Columns and labels:
[1] = Plasma levels after intra-articular injection of 50/50 PLGA formulation; type: in vivo, rats; settings: 200 μg dose in 50/50 PLGA IA formulation into knees, rat plasma
Description: Animals were anaesthetised with isofluorane and 30 μl PLGA microspheres containing 200 μg injected into each knee using a Hamilton syringe and 25G needle. The vial of microspheres was vortexed before injection of each animal to try and obtain a homogeneous injection solution. Animals were recovered and returned to their home cages until plasma sampling.
Animals were warmed in a hot box for 10 minutes at 42° C. before being placed in a restrainer and 200 μl blood sampled from the lateral tail vein into a Sarsted Multivette 600 Lithium Heparin tube (cat no 15.1673) attached to a 21G needle. Tubes were placed on a roller until centrifugation at 13000 rpm for 5 minutes to sediment red blood cells. Plasma was decanted and stored at −20° C. until analysis by DMPK. Samples were taken 1 h, 3 h, 6 h, 24 h, 48 h, 96 h and 168 h post-injection.
The levels shown are for a 200 μg dose of compound.

[2] = Hydrolytic stability of PA in the acidic microclimate created by polymer degradation; type: physicochemical

CC(C)Oc1cc(Nc2nc(N[C@@H](C)c3ccc(F)cn3)c(C#N)cc2F)n[nH]1 [PA, 5-fluoro-2-[[(1S)-1-(5-fluoro-2-pyridyl)ethyl]amino]-6-[(5-isopropoxy-1H-pyrazol-3-yl)amino]pyridine-3-carbonitrile]
period over which release of compound was seen (plasma) [1]: 168 h
hydrolytic stability in acidic microclimate [2]: hydrolytically stable
